Like-named read-outs stand apart in the source and are kept apart here.
Assays:
[1] = target: T1, hGIPR (Homo sapiens, UniProt P48546); assay: hGIPR CreLuc assay in 0.5% and 100% plasma (CHO CRE-luciferase reporter cells); type: cell-based
T1 construct: expressed in transfected cells; host or cells: CHO CRE-luciferase reporter cells
T1 sequence (P48546 22-466): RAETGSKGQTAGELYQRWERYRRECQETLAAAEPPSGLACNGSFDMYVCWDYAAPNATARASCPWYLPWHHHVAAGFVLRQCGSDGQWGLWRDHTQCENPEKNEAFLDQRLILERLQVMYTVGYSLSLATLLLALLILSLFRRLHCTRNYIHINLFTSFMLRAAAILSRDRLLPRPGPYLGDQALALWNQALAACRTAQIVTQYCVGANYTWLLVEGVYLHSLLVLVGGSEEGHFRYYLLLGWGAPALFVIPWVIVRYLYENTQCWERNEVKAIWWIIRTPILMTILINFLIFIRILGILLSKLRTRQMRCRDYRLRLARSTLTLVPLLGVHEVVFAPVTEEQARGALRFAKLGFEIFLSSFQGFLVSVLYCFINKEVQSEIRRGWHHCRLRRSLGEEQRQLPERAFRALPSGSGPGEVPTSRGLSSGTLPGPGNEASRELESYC
Source text: CHO and HEK-293 recombinant cell lines express a luciferase reporter gene under control of the CAMP responsive element (CRE). As a second recombinant protein the GLP-1 and NPY2 receptors were expressed in the reporter gene HEK cells, and the GIP receptor was expressed in the reporter gene CHO cells, respectively. Stimulation of these recombinant cells with an agonist leads to an increase of intracellular CAMP levels. In the presence of CAMP, the transcription factor CRE binding protein (CREB) binds to the CRE and to the CREB binding protein (CBP), which leads to transcription of the luciferase reporter gene. Peptides upon serial-dilution in 100% DMSO were transferred into 384-well assay plates with 5 μl pre-dispensed assay buffer (1×HBSS, 20 mM HEPES, pH7.4 supplemented with 0.5% human plasma) using acoustic dispensing on a Labcyte ECHO. Cryo-preserved transgenic reporter gene cells were thawed in assay buffer. 20 μl (10.000 cells/well) were added to the plate with the peptides and incubated for 4 hours at 37° C. in a humidified incubator. Following incubation, assay plates are equilibrated to room temperature, followed by addition of 25 μl of Bright-Glo™ Luciferase reagent, incubation at room temperature for 10 minutes and analysis of luminescence (Envision Reader). […] EC50 values were calculated by non-linear regression using sigmoid concentration-response with variable slope.
The same assays were run in the presence of 100% plasma with no additional buffer constituents.

[2] = Solubility in 0.1 M phosphate buffer at pH 7; type: physicochemical; details: 0.1 M phosphate buffer at pH 7, 10 mg/mL final peptide concentration, shaking 2 hours at room temperature, peptides as TFA-salts, measured sample pH 6.5-7.0
[3] = 0.5% human plasma, read-out: hGIPR 0.5% hP
[4] = 100% human plasma, read-out: hGIPR 100% hP

| EC50 [1, 3] | solubility at 2 h [2] | EC50 [1, 4] | solubility ([2]; read-out: Solubility) | SMILES |
| --- | --- | --- | --- | --- |
| 0.7 nM | 8900 µg/mL | – | – | CC[C@H](C)[C@H](NC(=O)[C@H](CC(C)C)NC(=O)[C@H](Cc1c[nH]cn1)NC(=O)[C@H](CCCNC(=N)N)NC(=O)[C@@H](NC(=O)[C@H](Cc1ccccc1)NC(=O)[C@H](C)NC(=O)C(C)(C)NC(=O)[C@H](CCC(N)=O)NC(=O)[C@H](C)NC(=O)[C@H](CCC(N)=O)NC(=O)[C@H](CC(N)=O)NC(=O)[C@H](CCC(=O)O)NC(=O)[C@H](CC(C)C)NC(=O)C(C)(C)NC(=O)[C@@H](NC(=O)[C@H](CO)NC(=O)[C@H](Cc1ccc(O)cc1)NC(=O)[C@H](CC(=O)O)NC(=O)[C@H](CO)NC(=O)[C@@H](NC(=O)[C@H](Cc1ccccc1)NC(=O)[C@@H](NC(=O)CNC(=O)[C@H](CCC(=O)O)NC(=O)C(C)(C)NC(=O)[C@@H](N)Cc1ccc(O)cc1)[C@@H](C)O)[C@@H](C)O)[C@@H](C)CC)C(C)C)C(=O)N[C@@H](CC(N)=O)C(=O)N[C@@H](CCCCNC(=O)[C@@H](N)CCCCNC(=O)CC[C@H](NC(=O)CC[C@H](NC(=O)CC[C@H](NC(=O)CC[C@H](NC(=O)CC[C@H](NC(=O)CC[C@H](NC(=O)CCCCCCCCCCCCCCCCC(=O)O)C(=O)O)C(=O)O)C(=O)O)C(=O)O)C(=O)O)C(=O)O)C(=O)NC(C)(C)C(=O)N[C@H](C(=O)N[C@@H](CCCNC(=N)N)C(=O)N[C@@H](CCC(N)=O)C(=O)N[C@@H](CCCNC(=N)N)C(=O)N[C@@H](Cc1ccc(O)cc1)C(N)=O)[C@@H](C)O [Compound 6, Y-Aib-E-G-T-F-T-S-D-Y-S-I-Aib-L-E-N-Q-A-Q-Aib-A-F-V-R-H-L-I-N-K(1,3)-Aib-T-R-Q-R-Y-NH2.C18DA-gGlu-gGlu-gGlu-gGlu-gGlu-gGlu-eLys(1,2)] |
| 0.3 nM | 800 µg/mL | 8 nM | – | CC[C@H](C)[C@H](NC(=O)[C@H](CC(C)C)NC(=O)[C@H](Cc1c[nH]cn1)NC(=O)[C@H](CCCNC(=N)N)NC(=O)[C@@H](NC(=O)[C@H](Cc1ccccc1)NC(=O)[C@H](C)NC(=O)C(C)(C)NC(=O)[C@H](CCC(N)=O)NC(=O)[C@H](C)NC(=O)[C@H](CCC(N)=O)NC(=O)[C@H](CCCCN)NC(=O)[C@H](CCC(=O)O)NC(=O)[C@H](CC(C)C)NC(=O)C(C)(C)NC(=O)[C@@H](NC(=O)[C@H](CO)NC(=O)[C@H](Cc1ccc(O)cc1)NC(=O)[C@H](CC(=O)O)NC(=O)[C@H](CO)NC(=O)[C@@H](NC(=O)[C@H](Cc1ccccc1)NC(=O)[C@@H](NC(=O)CNC(=O)[C@H](CCC(=O)O)NC(=O)C(C)(C)NC(=O)[C@@H](N)Cc1ccc(O)cc1)[C@@H](C)O)[C@@H](C)O)[C@@H](C)CC)C(C)C)C(=O)N[C@@H](CC(N)=O)C(=O)N[C@@H](CCCCNC(=O)[C@@H](N)CCCCNC(=O)[C@@H](N)CCCCNC(=O)CC[C@H](NC(=O)CC[C@H](NC(=O)CC[C@H](NC(=O)CC[C@H](NC(=O)CC[C@H](NC(=O)CC[C@H](NC(=O)CCCCCCCCCCCCCCCCC(=O)O)C(=O)O)C(=O)O)C(=O)O)C(=O)O)C(=O)O)C(=O)O)C(=O)NC(C)(C)C(=O)N[C@H](C(=O)N[C@@H](CCCNC(=N)N)C(=O)N[C@@H](CCC(N)=O)C(=O)N[C@@H](CCCNC(=N)N)C(=O)N[C@@H](Cc1ccc(O)cc1)C(N)=O)[C@@H](C)O [Compound 11, Y-Aib-E-G-T-F-T-S-D-Y-S-I-Aib-L-E-K-Q-A-Q-Aib-A-F-V-R-H-L-I-N-K(1,3)-Aib-T-R-Q-R-Y-NH2.C18DA-gGlu-gGlu-gGlu-gGlu-gGlu-gGlu-eLys-eLys(1,2)] |
| 0.2 nM | 4000 µg/mL | 2 nM | – | CC[C@H](C)[C@H](NC(=O)[C@H](CC(C)C)NC(=O)[C@H](Cc1c[nH]cn1)NC(=O)[C@H](CCCNC(=N)N)NC(=O)[C@@H](NC(=O)[C@H](Cc1ccccc1)NC(=O)[C@H](C)NC(=O)C(C)(C)NC(=O)[C@H](CCC(N)=O)NC(=O)[C@H](C)NC(=O)[C@H](CCC(N)=O)NC(=O)[C@H](CCCCN)NC(=O)[C@H](CCC(=O)O)NC(=O)[C@H](CC(C)C)NC(=O)C(C)(C)NC(=O)[C@@H](NC(=O)[C@H](CO)NC(=O)[C@H](Cc1ccc(O)cc1)NC(=O)[C@H](CC(=O)O)NC(=O)[C@H](CO)NC(=O)[C@@H](NC(=O)[C@H](Cc1ccccc1)NC(=O)[C@@H](NC(=O)CNC(=O)[C@H](CCC(=O)O)NC(=O)C(C)(C)NC(=O)[C@@H](N)Cc1ccc(O)cc1)[C@@H](C)O)[C@@H](C)O)[C@@H](C)CC)C(C)C)C(=O)N[C@@H](CC(N)=O)C(=O)N[C@@H](CCCCNC(=O)[C@@H](N)CCCCNC(=O)CC[C@H](NC(=O)CC[C@H](NC(=O)CC[C@H](NC(=O)CC[C@H](NC(=O)CC[C@H](NC(=O)CC[C@H](NC(=O)CCCCCCCCCCCCCCCCC(=O)O)C(=O)O)C(=O)O)C(=O)O)C(=O)O)C(=O)O)C(=O)O)C(=O)NC(C)(C)C(=O)N[C@H](C(=O)N[C@@H](CCCNC(=N)N)C(=O)N(C)[C@@H](CCC(N)=O)C(=O)N[C@@H](CCCNC(=N)N)C(=O)N[C@@H](Cc1ccc(O)cc1)C(N)=O)[C@@H](C)O [Compound 17, Y-Aib-E-G-T-F-T-S-D-Y-S-I-Aib-L-E-K-Q-A-Q-Aib-A-F-V-R-H-L-I-N-K(1,3)-Aib-T-R-NMeQ-R-Y-NH2.C18DA-gGlu-gGlu-gGlu-gGlu-gGlu-gGlu-eLys(1,2)] |
| 0.3 nM | – | 5.6 nM | 9400 µg/mL | CC[C@H](C)[C@H](NC(=O)[C@H](CC(C)C)NC(=O)[C@H](Cc1c[nH]cn1)NC(=O)[C@H](CCCNC(=N)N)NC(=O)[C@@H](NC(=O)[C@H](Cc1ccccc1)NC(=O)[C@H](C)NC(=O)C(C)(C)NC(=O)[C@H](CCC(N)=O)NC(=O)[C@H](C)NC(=O)[C@H](CCC(N)=O)NC(=O)[C@H](CCCCN)NC(=O)[C@H](CCC(=O)O)NC(=O)[C@H](CC(C)C)NC(=O)C(C)(C)NC(=O)[C@@H](NC(=O)[C@H](CO)NC(=O)[C@H](Cc1ccc(O)cc1)NC(=O)[C@H](CC(=O)O)NC(=O)[C@H](CO)NC(=O)[C@@H](NC(=O)[C@H](Cc1ccccc1)NC(=O)[C@@H](NC(=O)CNC(=O)[C@H](CCC(=O)O)NC(=O)C(C)(C)NC(=O)[C@@H](N)Cc1ccc(O)cc1)[C@@H](C)O)[C@@H](C)O)[C@@H](C)CC)C(C)C)C(=O)N[C@@H](CC(N)=O)C(=O)N[C@@H](CCCCNC(=O)[C@@H](N)CCCCNC(=O)CC[C@H](NC(=O)CC[C@H](NC(=O)CC[C@H](NC(=O)CC[C@H](NC(=O)CC[C@H](NC(=O)CC[C@H](NC(=O)CCCCCCCCCCCCCCCCCCC(=O)O)C(=O)O)C(=O)O)C(=O)O)C(=O)O)C(=O)O)C(=O)O)C(=O)NC(C)(C)C(=O)N[C@H](C(=O)N[C@@H](CCCNC(=N)N)C(=O)N(C)[C@@H](CCC(N)=O)C(=O)N[C@@H](CCCNC(=N)N)C(=O)N[C@@H](Cc1ccc(O)cc1)C(N)=O)[C@@H](C)O [Compound 26, Y-Aib-E-G-T-F-T-S-D-Y-S-I-Aib-L-E-K-Q-A-Q-Aib-A-F-V-R-H-L-I-N-K(1,3)-Aib-T-R-NMeQ-R-Y-NH2.C20DA-gGlu-gGlu-gGlu-gGlu-gGlu-gGlu-eLys(1,2)] |
